Test results from ChEMBL document CHEMBL4811295, “The ester derivatives obtained by C-ring modification of podophyllotoxin induce apoptosis and inhibited proliferation in PC-3M cells via down-regulation of PI3K/Akt signaling pathway” (Bioorg Med Chem Lett, 2021).
The source made the active and inactive calls. No cut-off for these calls is given here.

How the values were obtained:
A549 = test: Cytotoxicity in human A549 cells assessed as inhibition of cell proliferation measured by CCK-8 assay; format: functional, cell-based
HepG2 = test: Cytotoxicity in human HepG2 cells assessed as inhibition of cell proliferation measured by CCK-8 assay; format: functional, cell-based
HMEC = test: Cytotoxicity in human HMEC cells assessed as inhibition of cell proliferation measured by CCK-8 assay; format: functional, cell-based
PC-3M [1] = test: Cytotoxicity in human PC-3M cells assessed as inhibition of cell proliferation measured by CCK-8 assay; format: functional, cell-based
MCF7 = test: Cytotoxicity in human MCF7 cells assessed as inhibition of cell proliferation measured by CCK-8 assay; format: functional, cell-based
PC-3M [2] = test: Induction of apoptosis in human PC-3M cells assessed as early apoptotic cells at 1 nM measured after 48 hrs by Annexin V/PI staining based flow cytometry method (reference value: 1.25%); format: functional
PC-3M [3] = test: Induction of apoptosis in human PC-3M cells assessed as early apoptotic cells at 10 nM measured after 48 hrs by Annexin V/PI staining based flow cytometry method (reference value: 1.25%); format: functional
PC-3M [4] = test: Induction of apoptosis in human PC-3M cells assessed as necrotic cells at 10 nM measured after 48 hrs by Annexin V/PI staining based flow cytometry method (reference value: 0.25%); format: functional
PC-3M [5] = test: Induction of apoptosis in human PC-3M cells assessed as necrotic cells at 5 nM measured after 48 hrs by Annexin V/PI staining based flow cytometry method (reference value: 0.25%); format: functional
PC-3M [6] = test: Induction of apoptosis in human PC-3M cells assessed as viable cells at 5 nM measured after 48 hrs by Annexin V/PI staining based flow cytometry method (reference value: 95.6%); format: functional; conditions: read-out: Activity
PC-3M [7] = test: Induction of apoptosis in human PC-3M cells assessed as necrotic cells at 1 nM measured after 48 hrs by Annexin V/PI staining based flow cytometry method (reference value: 0.25%); format: functional
PC-3M [8] = test: Induction of apoptosis in human PC-3M cells assessed as viable cells at 1 nM measured after 48 hrs by Annexin V/PI staining based flow cytometry method (reference value: 95.6%); format: functional; conditions: read-out: Activity
PC-3M [9] = test: Antiproliferative activity against human PC-3M cells assessed as inhibition of cell proliferation at 1 nM measured after 9 days by Crystal violet staining based colony formation assay; format: functional; conditions: time 9.0 day
PC-3M [10] = test: Induction of apoptosis in human PC-3M cells assessed as late apoptotic cells at 10 nM measured after 48 hrs by Annexin V/PI staining based flow cytometry method (reference value: 2.88%); format: functional
PC-3M [11] = test: Induction of apoptosis in human PC-3M cells assessed as viable cells at 10 nM measured after 48 hrs by Annexin V/PI staining based flow cytometry method (reference value: 95.6%); format: functional; conditions: read-out: Activity
PC-3M [12] = test: Induction of apoptosis in human PC-3M cells assessed as late apoptotic cells at 1 nM measured after 48 hrs by Annexin V/PI staining based flow cytometry method (reference value: 2.88%); format: functional
PC-3M [13] = test: Induction of apoptosis in human PC-3M cells assessed as early apoptotic cells at 5 nM measured after 48 hrs by Annexin V/PI staining based flow cytometry method (reference value: 1.25%); format: functional
PC-3M [14] = test: Induction of apoptosis in human PC-3M cells assessed as late apoptotic cells at 5 nM measured after 48 hrs by Annexin V/PI staining based flow cytometry method (reference value: 2.88%); format: functional
PC-3M [15] = test: Induction of apoptosis in human PC-3M cells assessed by formation of apoptotic bodies at 10 nM measured after 48 hrs by DAPI staining based microscopic method; format: functional, cell-based
PC-3M [16] = test: Induction of apoptosis in human PC-3M cells assessed by formation of chromatin fragments at 10 nM measured after 48 hrs by DAPI staining based microscopic method; format: functional, cell-based
[17] = target: RAC-alpha serine/threonine-protein kinase (Homo sapiens) (UniProt P31749); test: Inhibition of Akt in human PC-3M cells assessed as reduction of […] expression at 1 to 10 nM measured by western blot assay; format: cell-based; conditions: dose 1-10 nM
PC-3M [18] = test: Induction of apoptosis in human PC-3M cells assessed as increase of Bax expression at 1 to 10 nM measured by western blot assay; format: functional, cell-based; conditions: dose 1-10 nM
PC-3M [19] = test: Induction of apoptosis in human PC-3M cells assessed as decrease of Bcl-2 expression at 1 to 10 nM measured by western blot assay; format: functional, cell-based; conditions: dose 1-10 nM
PC-3M [20] = test: Induction of apoptosis in human PC-3M cells assessed by broken nucleus at 10 nM measured after 48 hrs by DAPI staining based microscopic method; format: functional, cell-based
PC-3M [21] = test: Anti-migration activity in human PC-3M cells measured after 24 hrs by microscopy based wound scratch method; format: functional, cell-based; conditions: dose 1-10 nM
PC-3M [22] = test: Induction of apoptosis in human PC-3M cells assessed as increase of cleaved caspase-3 expression at 1 to 10 nM measured by western blot assay; format: functional, cell-based; conditions: dose 1-10 nM
PC-3M [23] = test: Inhibition of PI3K in human PC-3M cells assessed as reduction of phosphorylated PI3K expression at 1 to 10 nM measured by western blot assay; format: cell-based; conditions: dose 1-10 nM
PC-3M [24] = test: Antiproliferative activity against human PC-3M cells assessed as inhibition of cell proliferation measured after 9 days by Crystal violet staining based colony formation assay; format: functional; conditions: dose 5-10 nM, time 9.0 day
PC-3M [25] = test: Induction of apoptosis in human PC-3M cells assessed by apoptotic changes in cells at 1 uM measured after 48 hrs by DAPI staining based microscopic method relative to PPT; format: functional, cell-based
PC-3M [26] = test: Induction of apoptosis in human PC-3M cells assessed by irregular nucleus at 10 nM measured after 48 hrs by DAPI staining based microscopic method; format: functional, cell-based

RAC-alpha serine/threonine-protein kinase (Homo sapiens), sequence (P31749 whole entry): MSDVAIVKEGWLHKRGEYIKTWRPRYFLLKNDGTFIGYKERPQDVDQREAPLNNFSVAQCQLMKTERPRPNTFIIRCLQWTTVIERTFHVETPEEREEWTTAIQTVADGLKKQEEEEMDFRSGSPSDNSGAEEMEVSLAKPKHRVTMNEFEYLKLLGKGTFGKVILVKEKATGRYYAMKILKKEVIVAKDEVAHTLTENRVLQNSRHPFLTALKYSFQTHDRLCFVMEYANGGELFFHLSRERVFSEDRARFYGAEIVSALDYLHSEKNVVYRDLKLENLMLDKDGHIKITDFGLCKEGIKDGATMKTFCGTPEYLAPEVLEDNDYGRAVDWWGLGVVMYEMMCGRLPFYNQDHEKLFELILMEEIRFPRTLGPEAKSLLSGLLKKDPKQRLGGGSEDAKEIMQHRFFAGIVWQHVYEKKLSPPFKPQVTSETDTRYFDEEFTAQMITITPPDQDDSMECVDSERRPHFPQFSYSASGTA

C/C=C/C(=O)O[C@H]1c2cc3c(cc2[C@@H](c2cc(OC)c(OC)c(OC)c2)[C@H]2C(=O)OC[C@@H]21)OCO3
IC50 (A549): 40.2 nM | IC50 (HepG2): 109000 nM | IC50 (HMEC): 79.5 nM | IC50 (PC-3M [1]): 12.4 nM | IC50 (MCF7): 80900 nM

CCCCCCCCCCCCCCCCCC(=O)O[C@H]1c2cc3c(cc2[C@@H](c2cc(OC)c(OC)c(OC)c2)[C@H]2C(=O)OC[C@@H]21)OCO3
IC50 (A549): 7320 nM | IC50 (HepG2): 141000 nM | IC50 (HMEC): 3070 nM | IC50 (PC-3M [1]): 2600 nM | IC50 (MCF7): > 200000 nM

COc1cc([C@@H]2c3cc4c(cc3[C@H](OC(=O)c3sccc3Cl)[C@H]3COC(=O)[C@H]23)OCO4)cc(OC)c1OC
IC50 (A549): 155 nM | IC50 (HepG2): 149000 nM | IC50 (HMEC): 116 nM | IC50 (PC-3M [1]): 965 nM | IC50 (MCF7): > 200000 nM

C/C=C/C=C/C(=O)O[C@H]1c2cc3c(cc2[C@@H](c2cc(OC)c(OC)c(OC)c2)[C@H]2C(=O)OC[C@@H]21)OCO3
IC50 (A549): 143 nM | IC50 (HepG2): 2340 nM | IC50 (HMEC): 424 nM | IC50 (PC-3M [1]): 1100 nM | IC50 (MCF7): 127000 nM

COc1cc([C@@H]2c3cc4c(cc3[C@H](O)[C@H]3COC(=O)[C@H]23)OCO4)cc(OC)c1OC [PODOFILOX]
Activity (PC-3M [2]): 1.71% | Activity (PC-3M [3]): 3.31% | IC50 (A549): 5.37 nM | IC50 (HepG2): > 200000 nM | Activity (PC-3M [4]): 0.11% | Activity (PC-3M [5]): 0.17% | viability at 0.005 µM (PC-3M [6]): 87.6% | Activity (PC-3M [7]): 0.083% | IC50 (HMEC): 1340 nM | viability at 0.001 µM (PC-3M [8]): 94.4% | Activity (PC-3M [9]): inactive | IC50 (PC-3M [1]): 235 nM | Activity (PC-3M [10]): 20.9% | IC50 (MCF7): > 200000 nM | viability at 0.01 µM (PC-3M [11]): 75.7% | Activity (PC-3M [12]): 3.78% | Activity (PC-3M [13]): 3.17% | Activity (PC-3M [14]): 9.11%

COc1cc([C@@H]2c3cc4c(cc3[C@H](OC(=O)CN(C)C(=O)OC(C)(C)C)[C@H]3COC(=O)[C@H]23)OCO4)cc(OC)c1OC
IC50 (A549): 43 nM | IC50 (HMEC): 27800 nM | IC50 (PC-3M [1]): 13.2 nM

COc1cc([C@@H]2c3cc4c(cc3[C@H](OC(=O)[C@H](CC(C)C)NC(=O)OC(C)(C)C)[C@H]3COC(=O)[C@H]23)OCO4)cc(OC)c1OC
IC50 (A549): 6440 nM | IC50 (HepG2): 60300 nM | IC50 (HMEC): 2360 nM | IC50 (PC-3M [1]): 8.98 nM | IC50 (MCF7): 140000 nM

CCCCCCCCCCCC(=O)O[C@H]1c2cc3c(cc2[C@@H](c2cc(OC)c(OC)c(OC)c2)[C@H]2C(=O)OC[C@@H]21)OCO3
IC50 (A549): 539 nM | IC50 (HepG2): 53100 nM | IC50 (HMEC): 936 nM | IC50 (PC-3M [1]): 1250 nM | IC50 (MCF7): > 200000 nM

COc1cc([C@@H]2c3cc4c(cc3[C@H](OC(=O)c3ccncc3)[C@H]3COC(=O)[C@H]23)OCO4)cc(OC)c1OC [4-O-PODOPHYLLOTOXINYL-ISONICOTINATE]
IC50 (A549): 16.3 nM | IC50 (HepG2): 188000 nM | IC50 (HMEC): 3720 nM | IC50 (PC-3M [1]): 92.6 nM | IC50 (MCF7): > 200000 nM

COc1cc([C@@H]2c3cc4c(cc3[C@H](OC(=O)CNC(=O)OC(C)(C)C)[C@H]3COC(=O)[C@H]23)OCO4)cc(OC)c1OC
Activity (PC-3M [15]): Dose-Dependent Effect | Activity (PC-3M [2]): 1.86% | Activity (PC-3M [3]): 5.41% | Activity (PC-3M [16]): Dose-Dependent Effect | IC50 (A549): 9.54 nM | IC50 (HepG2): 50700 nM | inhibition [17]: Active | Activity (PC-3M [4]): 0.21% | Activity (PC-3M [18]): Dose-Dependent Effect | Activity (PC-3M [19]): Dose-Dependent Effect | Activity (PC-3M [5]): 0.11% | Activity (PC-3M [20]): Dose-Dependent Effect | Activity (PC-3M [21]): Dose-Dependent Effect | viability at 0.005 µM (PC-3M [6]): 83.4% | Activity (PC-3M [7]): 0.14% | IC50 (HMEC): 768 nM | Activity (PC-3M [22]): Dose-Dependent Effect | viability at 0.001 µM (PC-3M [8]): 92.5% | IC50 (PC-3M [1]): 1.28 nM | Activity (PC-3M [10]): 29.9% | IC50 (MCF7): 144000 nM | inhibition (PC-3M [23]): Active | Activity (PC-3M [24]): Dose-Dependent Effect | viability at 0.01 µM (PC-3M [11]): 64.4% | Activity (PC-3M [25]): Active | Activity (PC-3M [12]): 5.53% | Activity (PC-3M [13]): 3.74% | Activity (PC-3M [14]): 12.7% | Activity (PC-3M [26]): Dose-Dependent Effect
